In publication PMC10107836 (Chembiochem, 2022):
pIC50, pKd: −log10 of the molar value. Values joined by “and” are separate entries in the source; they are usually repeats but may differ in a detail not shown here. Equal values may be shown once.

Experiments:
[1] = biological target: SARS-CoV-2 spike RBD (SARS-CoV-2) (UniProt P0DTC2); test: SPR
[2] = biological target: human angiotensin-converting-enzyme-2 (ACE2) receptor, recombinant (human) (UniProt Q9BYF1); test: SPR
[3] = test system: AcmJRL−S‐protein interaction; type: binding, SARS‐CoV‐2
[4] = biological target: T1, AcmJRL (Ananas comosus, UniProt Q53J09); type: biochemical; conditions: SD, n = 3
T1 sequence (Q53J09 2-145): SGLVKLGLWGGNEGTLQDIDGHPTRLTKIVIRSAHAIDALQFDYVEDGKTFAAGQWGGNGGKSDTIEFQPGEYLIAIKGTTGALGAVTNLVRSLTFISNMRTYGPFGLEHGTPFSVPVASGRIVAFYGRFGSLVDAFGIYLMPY

[5] = biological target: T2, AcmJRL (Ananas comosus, UniProt Q53J09); type: binding; conditions: for RFU: FITC‐labelled AcmJRL at 50 μg mL^−1, average RFU±s.d. from 6 replicates
T2 sequence (Q53J09 1-145): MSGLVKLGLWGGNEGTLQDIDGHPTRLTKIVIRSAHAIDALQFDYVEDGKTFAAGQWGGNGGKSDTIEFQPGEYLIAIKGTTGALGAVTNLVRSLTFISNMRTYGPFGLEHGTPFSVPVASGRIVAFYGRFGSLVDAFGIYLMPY

[6] = biological target: T2, AcmJRL; test: Reporter ligand displacement assay; type: binding; conditions: carbohydrate at 10 mM
[7] = biological target: T2, AcmJRL; test: Semiotik glycan array with Cy3-labelled AcmJRL; type: binding

Chain of human angiotensin-converting-enzyme-2 (ACE2) receptor, recombinant (human) (Q9BYF1 18-740): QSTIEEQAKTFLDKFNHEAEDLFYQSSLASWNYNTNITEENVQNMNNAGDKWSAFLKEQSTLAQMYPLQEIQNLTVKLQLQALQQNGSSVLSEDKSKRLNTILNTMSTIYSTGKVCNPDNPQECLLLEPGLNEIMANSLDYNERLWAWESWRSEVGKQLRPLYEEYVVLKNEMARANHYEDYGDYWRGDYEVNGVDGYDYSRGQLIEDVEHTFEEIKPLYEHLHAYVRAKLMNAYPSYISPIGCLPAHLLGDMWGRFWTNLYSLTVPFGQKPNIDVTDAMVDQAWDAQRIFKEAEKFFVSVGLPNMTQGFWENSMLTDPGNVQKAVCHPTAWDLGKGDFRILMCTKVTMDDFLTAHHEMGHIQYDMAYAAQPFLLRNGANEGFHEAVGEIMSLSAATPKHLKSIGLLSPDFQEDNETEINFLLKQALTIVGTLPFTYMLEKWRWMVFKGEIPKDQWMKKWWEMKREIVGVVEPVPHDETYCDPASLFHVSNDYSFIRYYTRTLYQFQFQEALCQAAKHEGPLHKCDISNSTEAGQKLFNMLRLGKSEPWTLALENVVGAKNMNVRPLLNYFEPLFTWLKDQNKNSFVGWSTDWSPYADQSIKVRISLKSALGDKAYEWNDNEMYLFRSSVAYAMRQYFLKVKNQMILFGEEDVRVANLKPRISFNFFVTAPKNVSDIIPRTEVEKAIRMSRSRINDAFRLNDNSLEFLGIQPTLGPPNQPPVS

pineapple-derived jacalin-related lectin AcmJRL (natural protein)
pKd [1]: 4.89 and 4.46
koff [1]: 0.0194 s⁻¹
kon [1]: 1490 M⁻¹ s⁻¹
pKd [2]: 4.66
koff [2]: 0.0122 s⁻¹
kon [2]: 590 M⁻¹ s⁻¹

OC[C@H]1O[C@H](OC[C@H]2O[C@H](O[C@]3(CO)O[C@H](CO)[C@@H](O)[C@@H]3O)[C@H](O)[C@@H](O)[C@@H]2O)[C@H](O)[C@@H](O)[C@H]1O [D‐raffinose, Gal‐α‐1,6Glc‐α‐1,2Fruc]
effect on AcmJRL binding to S-protein (in words) [3]: did not interfere

CO[C@H]1O[C@H](CO)[C@@H](O)[C@H](O)[C@@H]1O [Me-α-D-Man, methyl α-D-mannopyranoside]
pIC50 [4]: 1.97

Man‐α‐1,6(Man‐α‐1,3)Man‐α‐1,6(Man‐α‐1,3)Man‐β [CFG‐GLYCAN ID 310]
RFU [5]: 410±141 RFU
binding response on CFG glycan array (in words) ([5]; FITC‐labelled AcmJRL, 5 and 50 μg mL^−1): highest binding responses

O=C[C@H](O)[C@@H](O)[C@H](O[C@@H]1O[C@H](CO)[C@@H](O)[C@H](O)[C@H]1O)[C@H](O)CO [cellobiose, Glc‐β‐1,4‐Glc]
inhibition of AcmJRL, single concentration (in words) [6]: had no effect

Manα1-6(Manα1-3)Manβ-sp4 [(Ma)3b]
binding on Semiotik glycan array (in words) [7]: showed no binding

OC[C@H]1O[C@@H](O[C@H]2[C@H](O)[C@@H](O)[C@H](O)O[C@@H]2CO)[C@H](O)[C@@H](O)[C@H]1O [D‐lactose, Gal‐β‐1,4Glc]
effect on AcmJRL binding to S-protein (in words) [3]: did not interfere

OC[C@H]1O[C@H](O[C@H]2[C@H](O)[C@@H](O)[C@H](O)O[C@@H]2CO)[C@H](O)[C@@H](O)[C@@H]1O [maltobiose, Glc‐α‐1,4‐Glc]
inhibition of AcmJRL, single concentration (in words) [6]: showed highest inhibition

-8(D-Ala1-7)Leg5Acα2-4GlcAβ1-3GlcNAcβ1- [E. coli O161]
binding on Semiotik glycan array (in words) [7]: recognised

OC[C@H]1O[C@H](O[C@H]2[C@H](O)[C@@H](O)[C@H](O)O[C@@H]2CO)[C@H](O)[C@@H](O)[C@@H]1O [CFG‐GLYCAN ID 195, Glc‐α‐1,4‐Glc‐β]
RFU [5]: 33±5 RFU

CC(=O)N[C@@H]1[C@@H](O)[C@H](O)[C@@H](CO)O[C@H]1O [D-GlcNAc, N‐acetylglucosamine]
inhibition of AcmJRL, single concentration (in words) [6]: confirmed as ligands

-3GalNAcβ1-4(L6dTalα1-3)Manα1-3L6dTalα1- [A. hydrophila O34deAc]
binding on Semiotik glycan array (in words) [7]: recognised

-6Manα1- [Mannan]
binding on Semiotik glycan array (in words) [7]: confirmed as a ligand

N[C@H]1C(O)O[C@H](CO)[C@@H](O)[C@@H]1O (some centres unmarked) [glucosamine]
inhibition of AcmJRL, single concentration (in words) [6]: confirmed as ligands
